Source: ChEMBL document CHEMBL3885881, “DrugMatrix”
“And” between values parts separate entries of the source, which are not always exact repeats. Equal entries are not always repeated.

Species on record: Rattus norvegicus
Experiment: DrugMatrix - Regimen: Daily Repeat
Type: toxicity, organism-based, Sprague-Dawley
Set-up: regimen Daily Repeat, gender Male, age 6-8 weeks
Conditions: in vivo, ip, 0 mg/kg, route intraperitoneal, dose level Control, vehicle 100 % SALINE; for ABSOLUTE BASOPHIL / ABSOLUTE EOSINOPHIL / ABSOLUTE LYMPHOCYTE / ABSOLUTE MONOCYTE / BASOPHIL / EOSINOPHIL / ERYTHROCYTE COUNT / HEMATOCRIT / HEMOGLOBIN / LEUKOCYTE COUNT / LYMPHOCYTE / MEAN CORPUSCULAR HEMOGLOBIN / MEAN CORPUSCULAR HEMOGLOBIN CONCENTRATION / MEAN CORPUSCULAR VOLUME / MONOCYTE / NEUTROPHIL / PLATELET COUNT: tissue Blood
[1] = 120 h, tissue Plasma, time 5 day
[2] = […], tissue Plasma, time 14 day
[3] = […], tissue Plasma, time 28 day

Q: Which results are given for CISPLATIN?
A: ABSOLUTE BASOPHIL (120 h, time 5 day): 32 cells/µL; ABSOLUTE EOSINOPHIL (120 h, time 5 day): 110 cells/µL; ABSOLUTE LYMPHOCYTE (120 h, time 5 day): 6630 cells/µL; ABSOLUTE MONOCYTE (120 h, time 5 day): 140 cells/µL; BASOPHIL (120 h, time 5 day): 0.38% and 0.35%; EOSINOPHIL (120 h, time 5 day): 1.28% and 0.62%; ERYTHROCYTE COUNT (120 h, time 5 day): 7.45 x10E6/uL and 7.26 x10E6/uL; HEMATOCRIT (120 h, time 5 day): 45.74% and 47.97%; HEMOGLOBIN (120 h, time 5 day): 14.72 G/DL and 15.38 G/DL; LEUKOCYTE COUNT (120 h, time 5 day): 8.11 x10E3/uL and 8.68 x10E3/uL; LYMPHOCYTE (120 h, time 5 day): 81.3% and 86.77%; MEAN CORPUSCULAR HEMOGLOBIN (120 h, time 5 day): 19.76 pg and 21.18 pg; MEAN CORPUSCULAR HEMOGLOBIN CONCENTRATION (120 h, time 5 day): 32.16 G/DL and 32.05 G/DL; MEAN CORPUSCULAR VOLUME (120 h, time 5 day): 61.38 fL and 66.15 fL; MONOCYTE (120 h, time 5 day): 1.76% and 1.57%; NEUTROPHIL (120 h, time 5 day): 14.9% and 9.53%; PLATELET COUNT (120 h, time 5 day): 1322.4 x10E3/uL and 1786 x10E3/uL; ALANINE AMINOTRANSFERASE [1]: 25.8 u/L and 20.5 u/L; ALBUMIN [1]: 3.64 G/DL and 4.35 G/DL; ALKALINE PHOSPHATASE [1]: 300 u/L; ASPARTATE AMINOTRANSFERASE [1]: 81.4 u/L and 86.75 u/L; BLOOD UREA NITROGEN [1]: 14.4 mg/dL and 17 mg/dL; CARBON DIOXIDE [1]: 29 mmol/L; CHOLESTEROL [1]: 69.2 mg/dL and 51.25 mg/dL; CREATININE [1]: 0.56 mg/dL and 0.47 mg/dL; GLUCOSE [1]: 125.4 mg/dL and 128.75 mg/dL; LACTATE DEHYDROGENASE [1]: 105.4 u/L and 145 u/L; LIPASE [1]: 22.4 u/L and 13.25 u/L; PHOSPHORUS [1]: 11.8 mg/dL; POTASSIUM [1]: 5.52 MEQ/L and 6.58 MEQ/L; SODIUM [1]: 147 MEQ/L and 151 MEQ/L; TOTAL BILIRUBIN [1]: 0.2 mg/dL and 0.33 mg/dL; URIC ACID [1]: 1.06 mg/dL and 1.95 mg/dL; ABSOLUTE BASOPHIL ([…], time 14 day): 130 cells/µL; ABSOLUTE EOSINOPHIL ([…], time 14 day): 140 cells/µL; ABSOLUTE LYMPHOCYTE ([…], time 14 day): 13500 cells/µL; ABSOLUTE MONOCYTE ([…], time 14 day): 400 cells/µL; HEMATOCRIT ([…], time 14 day): 45.98%; HEMOGLOBIN ([…], time 14 day): 15.17 G/DL; MEAN CORPUSCULAR VOLUME ([…], time 14 day): 59.4 fL; NEUTROPHIL ([…], time 14 day): 14.14%; ABSOLUTE BASOPHIL ([…], time 28 day): 91 cells/µL; ABSOLUTE EOSINOPHIL ([…], time 28 day): 110 cells/µL; ABSOLUTE LYMPHOCYTE ([…], time 28 day): 9910 cells/µL; ABSOLUTE MONOCYTE ([…], time 28 day): 210 cells/µL; BASOPHIL ([…], time 28 day): 0.77%; EOSINOPHIL ([…], time 28 day): 0.92%; ERYTHROCYTE COUNT ([…], time 28 day): 8.21 x10E6/uL; HEMATOCRIT ([…], time 28 day): 47.53%; HEMOGLOBIN ([…], time 28 day): 15.65 G/DL; LEUKOCYTE COUNT ([…], time 28 day): 11.91 x10E3/uL; LYMPHOCYTE ([…], time 28 day): 83.34%; MEAN CORPUSCULAR HEMOGLOBIN ([…], time 28 day): 19.07 pg; MEAN CORPUSCULAR HEMOGLOBIN CONCENTRATION ([…], time 28 day): 32.93 G/DL; MEAN CORPUSCULAR VOLUME ([…], time 28 day): 57.9 fL; MONOCYTE ([…], time 28 day): 1.68%; NEUTROPHIL ([…], time 28 day): 12.97%; PLATELET COUNT ([…], time 28 day): 1323.8 x10E3/uL; ALBUMIN [2]: 3.66 G/DL; CARBON DIOXIDE [2]: 25 mmol/L; CHLORIDE [2]: 107 MEQ/L; SODIUM [2]: 149.2 MEQ/L; URIC ACID [2]: 0.94 mg/dL; ALANINE AMINOTRANSFERASE [3]: 30 u/L; ALBUMIN [3]: 3.71 G/DL; ALKALINE PHOSPHATASE [3]: 186.8 u/L; ASPARTATE AMINOTRANSFERASE [3]: 78.2 u/L; BLOOD UREA NITROGEN [3]: 14.2 mg/dL
